Measured values taken from patent US20070218483A1, “SITE-SPECIFIC INCORPORATION OF FLUORINATED AMINO ACIDS INTO PROTEINS” (FRANKLIN AND MARSHALL COLLEGE, priority 2006, published 2007).
Entries after “also recorded” stand apart in the source; their conditions may differ.

What was measured:
E. coli DH10B cells = details: in vivo NMR cell samples
Method: Labeled NTR was also monitored in vivo.
E. coli DH10B cells containing pDule-tfmPhe1 and pTrc-NTR-124TAG or pTrc-NTR-36TAG were grown in modified minimal media containing supplemented flavin at 10 μM and induced to produce protein with 1.0 mM IPTG at an OD of 0.8. […] Cells were harvested 18 hrs after induction by centrifugation and stored at −80° C. Cells (from 0.5 L of media) for in vivo NMR measurements were thawed on ice, resuspended in 50 mL of PBS buffer (10 mM NaH2PO4, 140 mM NaCl pH 7.8) at 0° C., and repelleted by centrifugation at 5000 g. The cells for in vivo NMR spectra shown for NTR-tfmPhe-36 and NTR-tfmPhe-124 were washed 3 times and 5 times respectively.
NMR data were collected using a Varian Unity INOVA 500 MHz spectrometer fitted with a 5 mm broadband probe. The proton coil was tuned to fluorine frequency (470.114 MHz). Standard decoupling parameters were used with a 100,000 Hz spectral width, 9 μs pulse length (approximately 45°), 2.00 s acquisition time, and 1.00 s relaxation delay. A 10 Hz line broadening was applied and all spectra were recorded at 25±0.2° C. All spectra were locked and referenced to an internal standard containing 0.2% solution of 4-fluorotoluene in toluene-d8 (set at −120.771 ppm referenced from trifluorotoluene at −65.000 ppm). […]

[1] = test system: evolved tfmPhe MjTyrRS/tRNATyrCUA; assay: Incorporation into protein in response to TAG codon with tfmPhe synthetase, SDS-PAGE; type: cell-based, Methanococcus jannaschii; details: E. coli, amino acid added to the media
Excerpt: The two top performing synthetases were subcloned into the pDule vector (pDule-tfmPhe1 and pDule-tfmPhe2) for further analysis of a protein containing tfmPhe. The medium copy pDule plasmid is designed to contain both the tRNA^TyrCUA and new synthetase allowing a standard high copy protein expression plasmid for use in production of tfmPhe containing protein.
Selection of tfmPhe specific tRNA-aminoacyl synthetase. A library of tRNA-aminoacyl synthetases was encoded on a kanamycin (Kn) resistant plasmid, pBK-JM-Lib, under control of the constitutive E. coli GlnRS promoter and terminator. The library was transformed by electroporation into DH10B E. coli containing the tetracycline (Tet) resistant positive selection plasmid, pREP2/YC-JYCUA. The positive selection plasmid encodes a mutant tRNA^TyrCUA, an amber disrupted chloramphenicol acetyltransferase, and an amber disrupted T7 RNA polymerase that drives the production of green fluorescent protein. The first positive selection was performed in the presence of 1 mM tfmPhe, 70 μg/mL chloramphenicol (Cm), 50 μg/mL Kn, and 25 μg/mL Tet in a modified GMML media at 37° C. with 250 rpm shaking until the OD was >1.0. Plasmid DNA was extracted and pBK-JM-Lib was separated from pREP2/YC-JYCUA by agarose gel electrophoresis. […]

[2] = biological target: T1, modified pBpa MjTyrRS/tRNATyrCUA (Methanocaldococcus jannaschii, UniProt Q57834, D158T/E107P/I159A/L65V/Q56R/V103L/Y32G); assay: Incorporation into protein in response to TAG codon with modified pBpa synthetase (Ser159Ala, Leu65Val), SDS-PAGE; type: cell-based, Methanococcus jannaschii; details: E. coli, modified pBpa synthetase (SEQ ID NO: 8), Ser159Ala and Leu65Val
T1 construct: expressed in transfected cells; host or cells: E. coli
Excerpt: (§1) To improve the incorporation efficiency of dfBpa, the active site of pBpa MjTyrRS was altered to better accommodate the slightly larger dfBpa amino acid. Amino acids in the active site (Ser159, Leu65) were reduced in size or reduced in polarity to better accept dfBpa.
(§2) Analysis of fluorinated pBpa-protein by SDS-PAGE.

pBpa MjTyrRS/tRNATyrCUA = biological target: T2, pBpa MjTyrRS/tRNATyrCUA (Methanocaldococcus jannaschii, UniProt Q57834, D158T/E107P/I159S/Q56R/V103L/Y32G); assay: Incorporation into protein in response to TAG codon with pBpa synthetase, SDS-PAGE; type: cell-based, Methanococcus jannaschii; details: E. coli, amino acid added to the media, pBpa synthetase (SEQ ID NO: 7)
T2 construct: expressed in transfected cells; host or cells: E. coli carrying pDULE-pBpa
Excerpt: Incorporation of additional ^19F amino acids with p-benzoyl-phenylalanine (pBpa) synthetase. Using a synthetase known to selectively incorporate pBpa (SEQ ID NO: 7), other ^19F amino acids of similar shape and electrostatics may be incorporated site-specifically into proteins.
Analysis of incorporation of p-fluorobenzoylphenylalanine into protein response to a TAG stop codon in E. coli with evolved pBpa MjTyrRS/tRNA TyrCUA by SDS-PAGE.
as §1, §2

HDH = assay: Photo crosslinking of protein upon ultraviolet irradiation, SDS-PAGE; details: amino acid incorporated in protein
Excerpt: The amino acid pBpa in a protein may be used to determine the structural organization of the protein and conformational changes by initiating crosslinking with nearby peptides via externally provided ultraviolet irradiation. […] The time course of HDH-225pBpa and HDH-225-dfBpa during irradiation was studied by SDS-PAGE.

T1 sequence (Q57834 whole entry Y32G/Q56R/L65V/V103L/E107P/D158T/I159A): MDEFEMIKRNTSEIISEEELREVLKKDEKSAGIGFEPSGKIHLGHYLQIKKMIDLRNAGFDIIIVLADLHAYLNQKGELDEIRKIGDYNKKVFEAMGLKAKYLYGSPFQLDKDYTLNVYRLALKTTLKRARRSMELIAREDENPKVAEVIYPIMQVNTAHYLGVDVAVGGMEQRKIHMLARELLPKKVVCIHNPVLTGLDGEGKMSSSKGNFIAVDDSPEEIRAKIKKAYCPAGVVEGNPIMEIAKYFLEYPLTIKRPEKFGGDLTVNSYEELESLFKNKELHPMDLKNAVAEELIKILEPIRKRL
T2 sequence (Q57834 whole entry Y32G/Q56R/V103L/E107P/D158T/I159S): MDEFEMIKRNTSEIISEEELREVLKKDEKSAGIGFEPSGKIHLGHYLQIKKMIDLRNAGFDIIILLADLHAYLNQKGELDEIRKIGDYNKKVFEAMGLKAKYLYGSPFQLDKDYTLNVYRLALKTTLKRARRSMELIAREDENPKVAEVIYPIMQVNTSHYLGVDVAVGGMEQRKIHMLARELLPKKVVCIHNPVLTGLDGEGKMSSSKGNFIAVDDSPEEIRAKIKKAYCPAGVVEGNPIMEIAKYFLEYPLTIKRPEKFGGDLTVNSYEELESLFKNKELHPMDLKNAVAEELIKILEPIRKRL

Structure (SMILES) | cell permeability (E. coli DH10B cells) | incorporation into protein in response to TAG codon (pBpa MjTyrRS/tRNATyrCUA) | crosslinking upon irradiation (HDH) | further results
NC(=O)C1=CN([C@@H]2O[C@H](COP(=O)(O)OP(=O)(O)OC[C@H]3O[C@@H](n4cnc5c(N)ncnc54)[C@H](O)[C@@H]3O)[C@@H](O)[C@H]2O)C=CC1 [NADH, reduced nicotinamide adenine dinucleotide] | poor cell permeability | – | – | –
Cc1ccc(C[C@H](N)C(=O)O)cc1F [compound 4, 4-methyl-3-fluorophenylalanine] | – | – | – | incorporation into protein in response to TAG codon [1]: incorporated in the location coded by TAG; also recorded: full length HDH was produced containing 4
N[C@@H](Cc1ccc(C(=O)c2c(F)cccc2F)cc1)C(=O)O [compound 6, 2′,6′-difluoro-p-benzoylphenylalanine] | – | incorporated in the location coded by TAG; also recorded: less effectively than pBpa or 7 | shown to crosslink upon irradiation | incorporation into protein in response to TAG codon ([2]; listed as dfBpa): high efficiency; also recorded: length HDH was produced containing dfBpa; incorporation into protein in response to TAG codon (pBpa MjTyrRS/tRNATyrCUA; listed as dfBpa): full length HDH was produced containing dfBpa
O=C(N[C@@H](Cc1ccc(F)cc1)C(=O)O)c1ccccc1 [compound 7, p-fluorobenzoylphenylalanine] | – | incorporated in the location coded by TAG | shown to crosslink upon irradiation | incorporation into protein in response to TAG codon (pBpa MjTyrRS/tRNATyrCUA; listed as pfBpa): full length HDH was produced containing pfBpa
O=C(O)c1cccnc1 [nicotinic acid] | poor cell permeability | – | – | –
N[C@@H](Cc1ccc(C(=O)c2ccccc2)cc1)C(=O)O [pBpa, p-benzoyl-phenylalanine, reference compound] | – | full length HDH was produced containing pBpa | – | incorporation into protein in response to TAG codon [2]: high efficiency; also recorded: full length HDH was produced containing pBpa
